# Reference: ChEMBL document CHEMBL1147144, “Novel styrylpyridines as probes for SPECT imaging of amyloid plaques” (J Med Chem, 2007)
# Target: Amyloid-beta precursor protein (Homo sapiens, UniProt P05067)
# Experiment: Displacement of […] from Abeta peptide plaques in Alzheimer's disease patient brain
# Amyloid-beta precursor protein, sequence (P05067 whole entry): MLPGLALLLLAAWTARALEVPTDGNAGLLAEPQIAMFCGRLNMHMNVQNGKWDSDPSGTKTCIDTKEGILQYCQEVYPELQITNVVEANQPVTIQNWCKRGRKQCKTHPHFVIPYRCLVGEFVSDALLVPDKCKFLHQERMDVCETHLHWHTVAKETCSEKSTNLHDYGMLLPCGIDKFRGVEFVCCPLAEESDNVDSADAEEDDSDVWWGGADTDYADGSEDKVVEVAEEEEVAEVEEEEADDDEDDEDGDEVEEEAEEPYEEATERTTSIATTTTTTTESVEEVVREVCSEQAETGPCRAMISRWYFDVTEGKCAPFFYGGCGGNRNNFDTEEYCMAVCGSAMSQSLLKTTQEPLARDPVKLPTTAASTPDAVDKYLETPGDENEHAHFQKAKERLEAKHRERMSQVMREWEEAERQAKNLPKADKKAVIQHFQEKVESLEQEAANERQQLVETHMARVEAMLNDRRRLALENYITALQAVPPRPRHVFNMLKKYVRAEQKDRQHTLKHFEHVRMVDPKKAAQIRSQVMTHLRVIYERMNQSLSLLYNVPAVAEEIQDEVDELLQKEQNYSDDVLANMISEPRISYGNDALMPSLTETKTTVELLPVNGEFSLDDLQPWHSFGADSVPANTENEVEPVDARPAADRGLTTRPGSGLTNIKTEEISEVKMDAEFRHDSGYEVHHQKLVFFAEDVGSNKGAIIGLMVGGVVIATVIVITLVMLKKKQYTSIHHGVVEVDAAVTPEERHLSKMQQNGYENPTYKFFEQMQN
row,SMILES,Ki
1,CNc1ccc(/C=C/c2cnc(OCCOCCOCCF)c(Br)c2)cc1,4.5 nM
2,CNc1ccc(/C=C/c2cnc(OCCOCCOCCF)c(I)c2)cc1,9 nM
3,CN(C)c1ccc(/C=C/c2cnc(OCCOCCOCCF)c(Br)c2)cc1,6.8 nM

# More lines, now with the values ahead:
row,Ki,SMILES
1,21 nM,Oc1ccc(/C=C/c2cnc(OCCOCCOCCF)c(I)c2)cc1
2,8.5 nM,CNc1ccc(/C=C/c2cnc(OCCO)c(I)c2)cc1
3,3.6 nM,CN(C)c1ccc(/C=C/c2cnc(OCCO)c(Br)c2)cc1
4,6.8 nM,OCCOc1ncc(C=Cc2ccc(O)cc2)cc1Br
5,14.2 nM,Oc1ccc(/C=C/c2cnc(OCCOCCOCCF)c(Br)c2)cc1
